The test system of series [1] is Enlist cotton, XtendFlex cotton, LibertyLink GT27 soybean, and LibertyLink corn. Conditions: in vivo.
Another series has as its system johnsongrass. Description: Field experiment, johnsongrass control with glufosinate + additive at 10 pm (Example 5, FIG. 12). The format is in vivo.
In another series the test system is Palmer amaranth. The series is described as follows: Field experiment, Palmer amaranth control with glufosinate + additive at 10 pm (Example 5, FIG. 11). The class given is in vivo, Amaranthus palmeri.
The subject of series [2] is native large crabgrass populations. The series is described as follows: Field experiment, large crabgrass control (Examples 2 and 3, FIG. 6). To be noted: added to glufosinate 655 g ai/ha; saflufenacil 1 g ai/ha, acifluorfen 14 g ai/ha; 10 pm. The format is in vivo.
Series [3] deals with Enlist cotton, XtendFlex cotton, LibertyLink GT27 soybean, and LibertyLink corn. Conditions: in vivo. The source holds these as a separate data set.
The test system of series [4] is native mixture of Palmer amaranth and waterhemp. On the set-up: species or system Amaranthus palmeri, Amaranthus tuberculatus. Conditions: in vivo.

Structures are written as SMILES. Structures can show the parent of a compound that is named as a salt.

Take `CCOP(=S)(OCC)Oc1nc(Cl)c(Cl)cc1Cl` [Chlorpyrifos, O,O-Diethyl O-3,5,6-trichloropyridin-2-yl phosphorothioate]: in series [1], the crop response entry is recorded as “not eliciting a negative crop response”. The “increase in glufosinate efficacy of johnsongrass” value in the series with johnsongrass (in vivo) is given as “greatest increase”. Also, in the series on Palmer amaranth (in vivo), the “increase in glufosinate efficacy of Palmer amaranth” value is reported as “greatest increase”.
`O=C(O)c1cc(Oc2ccc(C(F)(F)F)cc2Cl)ccc1[N+](=O)[O-]` [acifluorfen]: the “effect of the additive on reductions in weed control due to low-light intensity” value (“effect of the additive on reductions” for short) in series [2] is on record as “did not alleviate reductions in weed control”. Besides, in series [3], the “crop impact of glufosinate and the additive applied during the day” value was “negatively impacted at least one of the crops”; the “crop injury when applied at 10 pm versus 10 am” value was “less”. For the same compound, the “effect of the additive on reductions” value in series [4] is on record as “did not alleviate reductions in weed control”.
`CCOC(=O)/C=C\C(=O)OCC` [diethyl maleate]: in the series on johnsongrass (low-light conditions (10 pm), glufosinate 655 g ai/ha + additive 280 g ai/ha, 15 to 20-cm tall johnsongrass), the “increase in glufosinate efficacy of johnsongrass” value is given as “greatest increase”. In addition, in the series with Palmer amaranth (low-light conditions (10 pm), glufosinate 655 g ai/ha + additive 280 g ai/ha, 25 to 30-cm tall Palmer amaranth), the “increase in glufosinate efficacy of Palmer amaranth” value was “greatest increase”.
In the case of `CC(C)N(C)S(=O)(=O)NC(=O)c1cc(-n2c(=O)cc(C(F)(F)F)n(C)c2=O)c(F)cc1Cl` [saflufenacil, N′-{2-Chloro-4-fluoro-5-[1,2,3,6-tetrahydro-3-methyl-2,6-dioxo-4-(trifluoromethyl)pyrimidin-1-yl]benzoyl}-N-isopropyl-N-methylsulfamide], the “effect of the additive on reductions” value in series [2] and in series [4] was “did not alleviate reductions in weed control” in each case. Besides, the “crop impact of glufosinate and the additive applied during the day” value in series [3] is listed as “negatively impacted at least one of the crops”. Besides, the “crop injury when applied at 10 pm versus 10 am” value in series [3] is reported as “less”.

The values are drawn from patent US12219958B2, “Glufosinate additive for improved weed control” (THE BOARD OF TRUSTEES OF THE UNIVERSITY OF ARKANSAS, priority 2019, dated 2025).
